Reference: ChEMBL document CHEMBL1221345, “Cytotoxic flavonoids from the leaves of Cryptocarya chinensis” (J Nat Prod, 2010)
*1 amine or outer side, *2 acyl side, *3 side chain or, on linkers, in order; H or OH if unused. Where a SMILES comes first, the peptide text is derived from it. Bridges are numbered along the chain shown (N, C = ends). Roman numbers before positions name the chains, in order. [ ]: non-standard residue; d: D form. Actinocin(1to9) = Cc1c2oc3c(C)ccc(C(=O)[*:2])c3nc-2c(C(=O)[*:1])c(N)c1=O; NMeV = CN[C@H](C(=O)O)C(C)C; Sar = CNCC(=O)O

Key:
Format in all cases: functional, cell-based
MCF7 = assay: Cytotoxicity against human MCF7 cells after 72 hrs by MTS reduction assay; details: MCF7, 72 h
NCI-H460 = assay: Cytotoxicity against human NCI-H460 cells after 72 hrs by MTS reduction assay; details: NCI-H460, 72 h
SF-268 = assay: Cytotoxicity against human SF268 cells after 72 hrs by MTS reduction assay; details: SF-268, 72 h
KB = assay: Cytotoxicity against human KB cells

| SMILES | IC50 (MCF7) [µM] | IC50 (NCI-H460) [µM] | IC50 (SF-268) [µM] | IC50 (KB) [nM] |
| --- | --- | --- | --- | --- |
| COc1cc(O)c2c(=O)c(OC)c(-c3ccccc3)oc2c1 | > 50 | > 50 | > 50 | – |
| CO[C@@H]1CC2=C(C(=O)CC(c3ccccc3)O2)[C@H]2CC(=O)O[C@H]21 (stereo not given in full) | > 50 | > 50 | > 50 | – |
| COc1cc(O)c2c(=O)c(OC)c(-c3ccccc3)oc2c1OC | > 50 | > 50 | > 50 | – |
| CC1=C(C)C(=O)C(CC[C@](C)(O)CCC[C@H](C)CCC[C@H](C)CCCC(C)C)=C(C)C1=O | > 50 | 37.3 | > 50 | – |
| CC(C)=CCC/C(C)=C/CC/C(C)=C/CC/C=C(\C)CC/C=C(\C)CCC=C(C)C | > 50 | > 50 | > 50 | – |
| CO[C@H]1CC2=C(C(=O)C[C@@H](c3ccccc3)O2)[C@H]2CC(=O)O[C@@H]12 [7-O-METHYLCRYPTOCHINONE A] | > 50 | > 50 | > 50 | – |
| CO[C@H]1CC2=C(C(=O)C[C@@H](c3ccccc3)O2)[C@@H]2CC(=O)O[C@H]12 [7-O-METHYLCRYPTOCHINONE B] | > 50 | > 50 | > 50 | – |
| O=C1C[C@@H]2C3=C(C=C[C@@H]2O1)O[C@@H](c1ccccc1)CC3=O [CRYPTOCARYANONE A] | 5.1 | 4.3 | 5 | 2500 |
| O=C1C[C@@H]2C3=C(C[C@H](O)[C@@H]2O1)O[C@H](c1ccccc1)CC3=O [CRYPTOCHINONE A] | > 50 | > 50 | > 50 | – |
| O=C1C[C@H]2C3=C(C[C@H](O)[C@H]2O1)O[C@H](c1ccccc1)CC3=O [CRYPTOCHINONE B] | > 50 | > 50 | > 50 | – |
| Cc1c2oc3c(C)ccc(C(=O)N[C@@H]4C(=O)N[C@H](C(C)C)C(=O)N5CCC[C@H]5C(=O)N(C)CC(=O)N(C)[C@@H](C(C)C)C(=O)O[C@@H]4C)c3nc-2c(C(=O)N[C@@H]2C(=O)N[C@H](C(C)C)C(=O)N3CCC[C@H]3C(=O)N(C)CC(=O)N(C)[C@@H](C(C)C)C(=O)O[C@@H]2C)c(N)c1=O [DACTINOMYCIN] (I: T[dV]P[Sar][NMeV] / II: T[dV]P[Sar][NMeV]; ester I:1-I:C, II:1-II:C; linker I:N-II:N via Actinocin(1to9)) | 0.103 | 0.008 | 0.016 | – |
| COC(=O)C[C@H]1CC=CC(=O)/C1=C(O)/C=C/c1ccccc1 [INFECTOCARYONE] | 24.3 | 11 | 3.7 | 1700 |
| COc1c(O)ccc(C(=O)/C=C/c2ccccc2)c1O [LARREIN] | > 50 | > 50 | > 50 | – |
| COc1cc2oc(-c3ccccc3)cc(=O)c2c(O)c1OC [MOSLOFLAVONE] | > 50 | > 50 | > 50 | – |
| COc1cc(O)c2c(c1)O[C@H](c1ccccc1)CC2=O [PINOSTROBIN] | > 50 | > 50 | > 50 | – |
| COc1cc(C=O)ccc1O [VANILLIN] | > 50 | > 50 | > 50 | – |
